Experimental data published in the supplement of paper PMC11061612.

Columns and labels:
Assay in all cases: Bliss excess, mean over the matrix (fraction); higher = more synergy
[1] = test system: MDST8 (Colorectal Carcinoma)
Method in brief: (§1)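 Cell lines grown in DMEM/F12 or RPMI with 10% FBS were plated in 1536-well plates and held 24 hours at 37°C, 5% CO2 before 72 hours of exposure to two-drug dose matrices, with DMSO typically at 0.2%. CellTiter-Glo 2.0 luminescence gave viability, which was converted to inhibition. Vehicle wells were set to 0 and blank wells to 1. Combination Emax is the second-highest inhibition in the matrix, and Bliss excess is the observed combination effect minus the expected EA + EB − EA·EB, where EA and EB are the single-agent effects.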

[2] = test system: SK-MG-1 (Low Grade Glioma)
Method in brief: as §1

[3] = test system: A549 (Lung Adenocarcinoma)
Method in brief: as §1

[4] = test system: ONS-76 (Other Solid Carcinomas)
Method in brief: as §1

[5] = test system: NCI-H1650 (Lung Adenocarcinoma)
Method in brief: as §1

[6] = test system: NCI-H64 (Small Cell Lung Carcinoma)
Method in brief: as §1

[7] = test system: CAL-29 (Bladder Carcinoma)
Method in brief: as §1

[8] = test system: CAPAN-2 (Pancreatic Carcinoma)
Method in brief: as §1

[9] = test system: NCI-H2066 (Squamous Cell Lung Carcinoma)
Method in brief: as §1

[10] = test system: NCI-H1581 (Non-Small Cell Lung Carcinoma)
Method in brief: as §1

Hs-445 (Non-Cancerous) = test system: Hs-445 (Non-Cancerous)
Method in brief: as §1

[11] = test system: COR-L311 (Small Cell Lung Carcinoma)
Method in brief: as §1

FU97 (Gastric Carcinoma) = test system: FU97 (Gastric Carcinoma)
Method in brief: as §1

PA-1 (Ovarian Carcinoma) = test system: PA-1 (Ovarian Carcinoma)
Method in brief: as §1

[12] = test system: A3-KAW (B-Cell Non-Hodgkin's Lymphoma)
Method in brief: as §1

[13] = test system: COLO-320-HSR (Colorectal Carcinoma)
Method in brief: as §1

IGR-37 (Melanoma) = test system: IGR-37 (Melanoma)
Method in brief: as §1

[14] = test system: NCI-H1693 (Lung Adenocarcinoma)
Method in brief: as §1

[15] = test system: JSC-1 (B-Cell Non-Hodgkin's Lymphoma)
Method in brief: as §1

[16] = test system: ECC10 (Gastric Carcinoma)
Method in brief: as §1

Structure (SMILES)	Bliss excess [1]	Bliss excess [2]	Bliss excess [3]	Bliss excess [4]	Bliss excess [5]	Bliss excess [6]	Bliss excess [7]	Bliss excess [8]	Bliss excess [9]	Bliss excess [10]	Bliss excess (Hs-445 (Non-Cancerous))	Bliss excess [11]	Bliss excess (FU97 (Gastric Carcinoma))	Bliss excess (PA-1 (Ovarian Carcinoma))	Bliss excess [12]	Bliss excess [13]	Bliss excess (IGR-37 (Melanoma))	Bliss excess [14]	Bliss excess [15]	Bliss excess [16]
COc1cccc(OCCCN)c1-c1cc(Nc2cnc(C#N)cn2)n[nH]1 [Prexasertib] + C=CCn1c(=O)c2cnc(Nc3ccc(N4CCN(C)CC4)cc3)nc2n1-c1cccc(C(C)(C)O)n1 [AZD1775] (first compound max 1 µM, partner max 1 µM)	0.0758	0.0712	0.139	-0.0299	0.0005	0.0127	-0.0079	-0.0231	-0.0337	0.155	-0.0366	0.0559	0.0052	0.03	0.0424	0.136	0.0322	-0.0139	0.0682	0.115
COc1nnc2ccc(N3CCC(c4ccc(OCCN5CCN(C)C(=O)[C@H]5C)cc4)CC3)nn12 [AZD5153] + Cc1c2c(nn1C)CSCc1cc(n(C)n1)CSc1cc(c3ccccc3c1)OCCCc1c(C(=O)O)n(C)c3c-2c(Cl)ccc13 [AZD5991] (first compound max 1 µM, 7x7, partner max 1 µM)	0.0069	-0.0383	-0.0918	-0.0081	-0.0082	-0.0074	-0.0162	-0.0078	-0.0569	-0.0739	-0.0723	-0.0225	0.0934	0.0109	-0.0289	-0.112	0.0608	-0.0418	-0.0542	0.0743
Cc1c2c(nn1C)CSCc1cc(n(C)n1)CSc1cc(c3ccccc3c1)OCCCc1c(C(=O)O)n(C)c3c-2c(Cl)ccc13 [AZD5991] + Cn1cnc2c(F)c(Nc3ccc(Br)cc3Cl)c(C(=O)NOCCO)cc21 [Selumetinib] (first compound max 1 µM, 7x7, partner max 3 µM)	-0.0014	0.0044	-0.0344	0.0319	-0.0083	-0.026	0.0436	0.0129	0.0459	0.0803	0.0106	-0.0212	-0.0609	0.0085	0.045	0.0173	0.0044	0.0314	0.027	0.0176
Cc1c2c(nn1C)CSCc1cc(n(C)n1)CSc1cc(c3ccccc3c1)OCCCc1c(C(=O)O)n(C)c3c-2c(Cl)ccc13 [AZD5991] + C=CCn1c(=O)c2cnc(Nc3ccc(N4CCN(C)CC4)cc3)nc2n1-c1cccc(C(C)(C)O)n1 [AZD1775] (first compound max 1 µM, partner max 1 µM)	0.0087	0.0333	-0.0488	-0.0214	0.0047	-0.0187	0.0878	0.0292	-0.0231	-0.0365	0.0139	-0.0655	0.0503	-0.0288	0.0126	0.045	-0.0015	0.0581	-0.0042	0.0696
Cn1cnc2c(F)c(Nc3ccc(Br)cc3Cl)c(C(=O)NOCCO)cc21 [Selumetinib] + C[C@@H]1COCCN1C2=NC(=NC(=C2)C3(CC3)[S@](=N)(=O)C)C4=C5C=CNC5=NC=C4 [AZD6738] (first compound max 10 µM, 7x7, partner max 10 µM)	0.042	0.0158	-0.0173	-0.0914	-0.0315	-0.0464	0.0155	0.0596	0.004	-0.0025	-0.0473	-0.056	0.0267	0.0267	0.061	-0.0678	-0.0122	-0.0017	0.0244	0.0198
Cc1cc2ncnn2cc1Nc1ncc2c(n1)n(C1CCOCC1)c(=O)n2C [AZD7648] + O=C(c1cc(Cc2n[nH]c(=O)c3ccccc23)ccc1F)N1CCN(C(=O)C2CC2)CC1 [Olaparib] (first compound max 10 µM, 7x7, partner max 10 µM)	-0.043	-0.0455	0.0613	-0.0419	-0.0494	-0.0384	-0.0288	-0.0757	-0.0624	-0.0319	0.0006	-0.126	-0.0879	-0.0072	-0.0107	-0.0169	-0.057	-0.0299	-0.0148	-0.0305
CN(CCO)CC[C@H](CSc1ccccc1)Nc1ccc(S(=O)(=O)NC(=O)c2ccc(N3CCC([C@@H](O)c4ccccc4-c4ccc(Cl)cc4)CC3)cc2)cc1S(=O)(=O)C(F)(F)F [AZD4320] + CN(C)CCCOc1ccc(-c2ccc3ncc4c(c3c2)n(C2CCOCC2)c(=O)n4C)cn1 [AZD0156] (first compound max 1 µM, 7x7, partner max 1 µM)	-0.0419	-0.0377	-0.039	-0.0494	-0.0443	0.0003	-0.0187	-0.033	-0.092	0.0018	-0.0732	0.0177	-0.0303	-0.0528	-0.0197	-0.0136	-0.0148	-0.0226	-0.0076	0.0096
CCN(CCO)CCCOc1ccc2c(Nc3cc(CC(=O)Nc4cccc(F)c4)[nH]n3)ncnc2c1 [AZD2811] + C[C@@H]1COCCN1C2=NC(=NC(=C2)C3(CC3)[S@](=N)(=O)C)C4=C5C=CNC5=NC=C4 [AZD6738] (first compound max 1 µM, 7x7, partner max 10 µM)	-0.0174	-0.0271	-0.106	-0.0864	-0.0801	-0.075	-0.0023	-0.0412	-0.0114	-0.0438	-0.01	-0.0642	-0.0795	-0.0116	-0.0417	-0.0366	-0.0366	-0.0654	-0.0495	-0.0454
C=CCn1c(=O)c2cnc(Nc3ccc(N4CCN(C)CC4)cc3)nc2n1-c1cccc(C(C)(C)O)n1 [AZD1775] + C[C@@H]1COCCN1C2=NC(=NC(=C2)C3(CC3)[S@](=N)(=O)C)C4=C5C=CNC5=NC=C4 [AZD6738] (first compound max 1 µM, partner max 10 µM)	-0.0161	-0.0173	-0.0313	-0.0256	-0.0054	0.0015	-0.006	-0.0608	0.0216	0.0228	-0.0017	0.0133	-0.0414	-0.01	0.0285	0.0852	0.0017	-0.0084	0.0409	0.0364
COc1cccc(OCCCN)c1-c1cc(Nc2cnc(C#N)cn2)n[nH]1 [Prexasertib] + Cc1cc2ncnn2cc1Nc1ncc2c(n1)n(C1CCOCC1)c(=O)n2C [AZD7648] (first compound max 1 µM, 7x7, partner max 10 µM)	-0.0217	-0.0257	0.0532	-0.031	0.0011	-0.0242	-0.0754	-0.0045	0.0214	0.022	-0.02	-0.0289	-0.0265	0.0205	0.0126	-0.0037	-0.058	0.0337	-0.0189	0.006
CCc1c2c(nc3ccc(O)cc13)-c1cc3c(c(=O)n1C2)COC(=O)[C@]3(O)CC [SN-38] + CN(C)CCCOc1ccc(-c2ccc3ncc4c(c3c2)n(C2CCOCC2)c(=O)n4C)cn1 [AZD0156] (first compound max 0.3 µM, 7x7, partner max 1 µM)	0.0171	0.23	0.0128	0.0091	-0.0079	-0.0365	-0.028	-0.0468	-0.0517	0.016	-0.018	-0.152	-0.0484	0.0713	0.0988	0.0243	-0.0327	-0.0099	-0.0046	-0.143
Cc1c2c(nn1C)CSCc1cc(n(C)n1)CSc1cc(c3ccccc3c1)OCCCc1c(C(=O)O)n(C)c3c-2c(Cl)ccc13 [AZD5991] + CC1(C)CCC(CN2CCN(c3ccc(C(=O)NS(=O)(=O)c4ccc(NCC5CCOCC5)c([N+](=O)[O-])c4)c(Oc4cnc5[nH]ccc5c4)c3)CC2)=C(c2ccc(Cl)cc2)C1 [Venetoclax] (first compound max 1 µM, 7x7, partner max 1 µM)	-0.0359	-0.0221	-0.0642	-0.0214	-0.0246	0.0308	0.0101	-0.0292	-0.0303	-0.0061	0.0357	0.157	-0.0525	0.0664	0.0191	0.0419	-0.0167	-0.025	0.0155	0.277
